Measurements taken from US9561201B2, “Therapeutic compounds” (Fibrotech Therapeutics Pty Ltd, priority 2006, dated 2017).

How the values were obtained:
[1] = tested on: rat mesangial cell line; test: TGF-β stimulated 3H-proline incorporation in mesangial cells (Example 5); format: cell-based; conditions: for Collagen synthesis: inhibition ranked against tranilast (T) or FT11
Experimental: (§1) A well-characterized cloned rat mesangial cell line (gift of D Nikolic-Patterson) is cultured in DMEM with FBS, 100 U/mL penicillin, and 100 ug/mL streptomycin in a humidified 5% CO2 atmosphere at 37° C. Cells are plated into 24-well culture dishes in DMEM/10% FBS at low density and allowed to adhere overnight. Cells are used between passages 20 and 40. The subconfluent cells are starved overnight in DMEM/0.1% FBS containing 150 uM L-ascorbic acid, prior to 4 hours of pre-treatment with or without tranilast or the FT compounds, followed by the addition of 5 ng/mL rhTGF-β11 (R&D Systems) and 1 uCi/mL of L-(2,3,4,5-^3H)-proline. Control wells have the compounds but no TGF-β1 added. Cells are incubated for a further 44 hours during which time their appearance is visually monitored. The cells are then washed three times in ice-cold PBS, twice in ice cold 10% TCA and solubilized in 750 uL 1M NaOH for 45 minutes at 37° C. or overnight at 4° C. A 500 uL aliquot is neutralized with 500 uL 1M HCl and 10 mL scintillation fluid (Instagel Plus-Perkin-Elmer) added. Counts are performed on a beta counter.
To normalize the proline incorporation counts to take into account the proliferative effects of TGF-β1, a BioRad protein assay is performed on a 100-150 uL aliquot of the remaining solubilized cells. The sample is neutralized with an equal amount of 1M HCl prior to the assay. The BSA standards used to construct the standard curve have the same amount of 1M NaOH and 1M HCl added as is present in the samples for assay.
Proline incorporation is expressed as cpm/ug protein. In order to compare inter-assay results, the incorporation is expressed as percentage reduction of TGF stimulated proline incorporation, where TGF alone gives 0% reduction and the zero control gives 100% reduction.

[2] = tested on: rat mesangial cell line; test: Effect on mesangial cell appearance (visual monitoring during proline assay); format: cell-based
Experimental: as §1
Compounds in Bold have Minimal Effect on Cell Appearance and Viability

[3] = Rattus norvegicus, Mesangial cell, 5 ng/mL TGF-β1, 44 h, read-out: Mesangial Cell Assay TGF-β % reduction of TGF-β stimulation_proline inc.

Effect on mesangial cell appearance ([2]; no concentration stated) | melting point [°C] | Effect on mesangial cell appearance ([2]; @ 30 μM) | SMILES | inhibition at 10 µM [1, 3] [%] | inhibition at 50 µM ([1]; Rattus norvegicus, Mesangial cell, @ 50 μM, 5 ng/mL TGF-β1, 44 h, read-out: Mesangial Cell Assay TGF-β % reduction of TGF-β stimulation_proline inc.) [%] | Collagen synthesis [1] | inhibition at 3 µM [1, 3] [%] | inhibition at 30 µM [1, 3] [%] | inhibition at 100 µM ([1]; Rattus norvegicus, Mesangial cell, @ 100 μM, 5 ng/mL TGF-β1, 44 h, read-out: Mesangial Cell Assay TGF-β % reduction of TGF-β stimulation_proline inc.) [%] | Effect on mesangial cell appearance ([2]; @ 100 μM) | Effect on mesangial cell appearance ([2]; @ all concentrations)
– | 178 to 180 | – | C#CCCOc1ccc(/C=C/C(=O)Nc2ccccc2C(=O)O)cc1OC [Analogue 37, (E)-2-[[3-(4-(But-3-ynyloxy)-3-methoxyphenyl)-1-oxo-2-propenyl]amino]benzoic acid] | ~50 | – | =FT11 | – | 70 | – | Some death | –
– | 197 to 198 | – | C#CCCOc1cc(/C=C/C(=O)Nc2ccccc2C(=O)O)ccc1OC [Analogue 38, (E)-2-[[3-(3-(But-3-ynyloxy)-4-methoxyphenyl)-1-oxo-2-propenyl]amino]benzoic acid] | ~40 | – | =FT11 | – | 65 | – | Some death | –
– | 165 to 166 | Looking bad | CCC#CCCOc1ccc(/C=C/C(=O)Nc2ccccc2C(=O)O)cc1OC [Analogue 39, (E)-2-[[3-(4-(Hex-3-ynyloxy)-3-methoxyphenyl)-1-oxo-2-propenyl]amino]benzoic acid] | ~70 | – | >FT11 | – | 100 | – | – | –
– | 163 to 165 | – | CCC#CCCOc1cc(/C=C/C(=O)Nc2ccccc2C(=O)O)ccc1OC [Analogue 40, (E)-2-[[3-(3-(Hex-3-ynyloxy)-4-methoxyphenyl)-1-oxo-2-propenyl]amino]benzoic acid] | ~70 | – | >FT11 | – | 100 | – | dead | –
– | 169 to 170 | – | CCCCC#CCCOc1ccc(/C=C/C(=O)Nc2ccccc2C(=O)O)cc1OC [Analogue 41, (E)-2-[[3-(3-Methoxy-4-(oct-3-ynyloxy)phenyl)-1-oxo-2-propenyl]amino]benzoic acid] | – | – | Toxic | – | – | – | – | Cells damaged @
– | 157 to 158 | – | CCCCC#CCCOc1cc(/C=C/C(=O)Nc2ccccc2C(=O)O)ccc1OC [Analogue 42, (E)-2-[[3-(4-Methoxy-3-(oct-3-ynyloxy)phenyl)-1-oxo-2-propenyl]amino]benzoic acid] | – | – | Toxic | – | – | – | – | Cells damaged @

The remaining lines, values behind:

SMILES | Effect on mesangial cell appearance ([2]; no concentration stated) | melting point [°C] | Effect on mesangial cell appearance ([2]; @ 30 μM) | inhibition at 10 µM [1, 3] [%] | inhibition at 50 µM ([1]; Rattus norvegicus, Mesangial cell, @ 50 μM, 5 ng/mL TGF-β1, 44 h, read-out: Mesangial Cell Assay TGF-β % reduction of TGF-β stimulation_proline inc.) [%] | Collagen synthesis [1] | inhibition at 3 µM [1, 3] [%] | inhibition at 30 µM [1, 3] [%] | inhibition at 100 µM ([1]; Rattus norvegicus, Mesangial cell, @ 100 μM, 5 ng/mL TGF-β1, 44 h, read-out: Mesangial Cell Assay TGF-β % reduction of TGF-β stimulation_proline inc.) [%] | Effect on mesangial cell appearance ([2]; @ 100 μM) | Effect on mesangial cell appearance ([2]; @ all concentrations)
COc1ccc(/C=C/C(=O)Nc2ccccc2C(=O)O)cc1O [Analogue 7, (E)-2-[[3-(3-Hydroxy-4-methoxyphenyl)-1-oxo-2-propenyl]amino]benzoic acid] | stressed | 215 to 216 | – | ~50 | 80 | > or =T | – | – | – | – | –
COc1ccc(/C=C/C(=O)Nc2cc3ccccc3cc2C(=O)O)cc1OC [Analogue 8, (E)-3-[[3-(3,4-Dimethoxyphenyl)-1-oxo-2-propenyl]amino]-2-naphthoic acid] | Heavily | 212 to 213 | – | – | – | Toxic | – | – | – | – | –
CCC#CCOc1ccc(/C=C/C(=O)Nc2ccccc2C(=O)O)cc1OC [Analogue 18, (E)-2-[[3-(3-Methoxy-4-(pent-2-ynyloxy)phenyl)-1-oxo-2-propenyl]amino]benzoic acid] | – | 185.5 to 186.5 | lifting off | ~70 | – | >>FT11 | ~55 | – | – | – | –
CC#CCOc1cc(/C=C/C(=O)Nc2ccccc2C(=O)O)ccc1OC [Analogue 23, (E)-2-{[3-(3-(But-2-ynyloxy)-4-methoxyphenyl)-1-oxo-2-propenyl]amino}benzoic acid] | – | 170 to 171 | – | 30 to 60 | – | >=FT11 | ~12 | 70 to 80 | ~80 | stress @ | –
